Data set [1] relates to Anopheles gambiae larvae of resistant strain AcerKis. In words: Larval sensitivity test (cup test), AcerKis strain. The following applies: for LC10 - 24 hours / LC10 - 48 hours: AcerKis larvae, graphical projection from log-probit regression curves; for LC10 - 24 hours: 24 hours exposure; for LC10 - 48 hours: 48 hours exposure. It counts as in vivo. How it is done:
Larval Testing Protocol. The larval sensitivity test or cup test, which was used in the present study, assesses the sensitivity of mosquito larvae to insecticides and repellents. The larvae were placed in cups containing 100 mL of osmosis water added with the substance to be tested or with only solvent in the case of the controls (see FIG. 3). Four containers (cups) of 25 larvae were exposed to one modality, for a total of 100 larvae. The mortality rate was observed 24 hours after exposure to the insecticide. The mosquitoes used were late L3/early L4 larvae (last larval stages) of Anopheles gambiae, sensitive Kis reference strain and a resistant strain AcerKis, grown in the MIVEGEC laboratory under standardized conditions.
(§1) Methodology of the WHO-certified Test of the Sensitivity of Larvae to Insectivides and Repellents. The sensitivity to insecticides and repellents of the Anopheles gambia mosquito larvae of the sensitive Kis strain and of the resistant AcerKis and KdrKis strains, was determined using the larval sensitivity test (or WHO-certified cup test). The larvae, selected at the L3/L4 stages, were placed in cups containing 100 mL of osmosis water in the presence of the substance to be tested or only the solvent in the case of controls. Four cups of 25 larvae were exposed to one modality, for a total of 100 larvae. The mortality rate was observed 24 […] and 48 hours after exposure to the insecticide. The mortality rates presented herein were corrected for the mortality observed in the controls of each replicate according to the Abbott formula (Abbott, J. Econom. Entomol., 1925, 18: 265-267).

The test system of data set [2] is Anopheles gambiae larvae of resistant strain KdrKis. Kind of data set: Larval sensitivity test (WHO-certified cup test), KdrKis strain. It is filed as in vivo. The settings on record: for LC10 - 24 hours / LC10 - 48 hours: KdrKis larvae, graphical projection from log-probit regression curves; for LC10 - 24 hours: 24 hours exposure; for LC10 - 48 hours: 48 hours exposure. On the procedure:
as §1

Structures are written as SMILES.

Consider `CCCCN(CCC(=O)OCC)C(C)=O` [IR3535, ethyl N-acetyl-N-butyl-β-alaninate], for which the “Mortality rate of larvae” value in data set [1] (AcerKis, IR3535 alone 1000 to 4000 mg/L, 24 and 48 hours) was “less than 5%”; in data set [2] (KdrKis, IR3535 alone 1000 to 4000 mg/L, 24 and 48 hours) it was “less than 5%”.

Turning to `N#C/N=C1\SCCN1Cc1ccc(Cl)nc1` [Thiacloprid, {(2Z)-3-[(6-Chloropyridin-3-yl)methyl]-1,3-thiazolidin-2-ylidene}cyanamide], the “LC10 - 24 hours” value in data set [1] and in data set [2] was 0.02 mg/L in each case. Further, the “LC10 - 48 hours” value in data set [1] and in data set [2] was 0.01 mg/L each time.

For `CN1COCN(Cc2cnc(Cl)s2)C1=N[N+](=O)[O-]` [Thiamethoxam, 3-[(2-Chloro-1,3-thiazol-5-yl)methyl]-5-methyl-N-nitro-1,3,5-oxadiazinan-4-imine], in data set [1], the “LC10 - 24 hours” value was 0.04 mg/L and the “LC10 - 48 hours” value worked out at 0.01 mg/L. For the same molecule, in data set [2], the “LC10 - 24 hours” value was determined as 0.04 mg/L and the “LC10 - 48 hours” value is given as 0.02 mg/L.

Values taken from US20230232833A1, “Synergistic Compositions for the Control of Mosquito-Borne Diseases” (Universite d'Angers, priority 2020, published 2023).
